Assay results from ChEMBL document CHEMBL1828558, “Discovery of (+)-N-(3-aminopropyl)-N-[1-(5-benzyl-3-methyl-4-oxo-[1,2]thiazolo[5,4-d]pyrimidin-6-yl)-2-methylpropyl]-4-methylbenzamide (AZD4877), a kinesin spindle protein inhibitor and potential anticancer agent” (J Med Chem, 2011).
Converted amounts (≈) assume the structure as drawn. Blank lines part the entries; values can stand above or below the compound they belong to. The source made the active and inactive calls. The rule behind the calls is not given here.

Assays:
[1] = species: Cavia porcellus; assay: Binding affinity to L-type calcium channel phenylalkylamine binding site in guinea pig ileum at 10 uM by radioligand displacement assay; type: tissue-based
[2] = target: Somatostatin receptor type 1 (Homo sapiens) (UniProt P30872); assay: Binding affinity to human SST1 receptor at 10 uM by radioligand displacement assay
[3] = target: T1, Polyunsaturated fatty acid 5-lipoxygenase (Homo sapiens) (UniProt P09917); assay: Inhibition of human 5-lipoxygenase at 10 uM
T1 sequence (whole entry): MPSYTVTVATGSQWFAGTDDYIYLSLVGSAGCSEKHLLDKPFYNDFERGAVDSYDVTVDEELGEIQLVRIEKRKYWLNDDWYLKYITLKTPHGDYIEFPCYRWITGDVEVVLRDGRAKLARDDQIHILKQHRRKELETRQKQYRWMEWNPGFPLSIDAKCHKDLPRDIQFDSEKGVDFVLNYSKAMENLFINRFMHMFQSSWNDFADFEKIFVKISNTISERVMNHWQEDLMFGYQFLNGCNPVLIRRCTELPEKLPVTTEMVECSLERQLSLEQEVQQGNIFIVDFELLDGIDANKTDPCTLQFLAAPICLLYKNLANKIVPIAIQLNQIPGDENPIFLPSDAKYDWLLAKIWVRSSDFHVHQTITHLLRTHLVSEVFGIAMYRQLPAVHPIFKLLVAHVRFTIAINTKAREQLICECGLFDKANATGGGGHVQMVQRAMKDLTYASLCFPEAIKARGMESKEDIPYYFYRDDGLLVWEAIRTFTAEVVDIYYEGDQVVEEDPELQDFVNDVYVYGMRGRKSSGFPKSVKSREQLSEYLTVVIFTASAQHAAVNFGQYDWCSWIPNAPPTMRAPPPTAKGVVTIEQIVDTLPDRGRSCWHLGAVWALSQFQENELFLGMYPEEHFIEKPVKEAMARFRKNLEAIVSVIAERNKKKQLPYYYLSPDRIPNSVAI

[4] = test system: Rattus norvegicus; assay: Increase in caspase 3 activation in Hans Wistar rat hollow fiber model implanted with human COLO205 cells at 6 mg/kg, iv after 48 hrs; type: functional, organism-based; set-up: dose 6 mg/kg; details: COLO 205
[5] = test system: Rattus norvegicus; assay: Increase in caspase 3 activation in Hans Wistar rat hollow fiber model implanted with human COLO205 cells at 12 mg/kg, iv after 48 hrs; type: functional, organism-based; set-up: dose 12 mg/kg; details: COLO 205
[6] = test system: Rattus norvegicus; assay: Increase monasters formation in Hans Wistar rat hollow fiber model implanted with human COLO205 cells at 6 mg/kg, iv after 24 hrs; type: functional, organism-based; set-up: dose 6 mg/kg; details: COLO 205
[7] = test system: Rattus norvegicus; assay: Increase monasters formation in Hans Wistar rat hollow fiber model implanted with human COLO205 cells at 6 mg/kg, iv after 48 hrs; type: functional, organism-based; set-up: dose 6 mg/kg; details: COLO 205
[8] = test system: Rattus norvegicus; assay: Increase monasters formation in Hans Wistar rat hollow fiber model implanted with human COLO205 cells at 12 mg/kg, iv after 24 hrs; type: functional, organism-based; set-up: dose 12 mg/kg; details: COLO 205
[9] = test system: Rattus norvegicus; assay: Increase monasters formation in Hans Wistar rat hollow fiber model implanted with human COLO205 cells at 12 mg/kg, iv after 48 hrs; type: functional, organism-based; set-up: dose 12 mg/kg; details: COLO 205
[10] = test system: Rattus norvegicus; assay: Increase of phospho-histone-H3 positive cells in Hans Wistar rat hollow fiber model implanted with human COLO205 cells at 6 mg/kg, iv after 24 hrs; type: functional, organism-based; set-up: dose 6 mg/kg; details: COLO 205
[11] = test system: Rattus norvegicus; assay: Increase of phospho-histone-H3 positive cells in Hans Wistar rat hollow fiber model implanted with human COLO205 cells at 12 mg/kg, iv after 24 hrs; type: functional, organism-based; set-up: dose 12 mg/kg; details: COLO 205
[12] = target: Tyrosine-protein kinase Lck (Homo sapiens) (UniProt P06239); assay: Inhibition of LCK at 10 uM
[13] = target: Ribosomal protein S6 kinase alpha-1 (Homo sapiens) (UniProt Q15418); assay: Inhibition of MAPKAP-K1a at 10 uM
[14] = species: Cavia porcellus; assay: Binding affinity to sodium channel site 2 in guinea pig atria at 10 uM by radioligand displacement assay
[15] = species: Cavia porcellus; assay: Binding affinity to L-type calcium channel benzothiazepine binding site in guinea pig ileum at 10 uM by radioligand displacement assay; type: tissue-based
[16] = target: T2, Kinesin-like protein KIF11 (Homo sapiens, UniProt P52732); assay: Inhibition of human recombinant C-terminal His6-tagged KSP ATPase activity after 1 hr by malachite green assay
T2 sequence (P52732 whole entry): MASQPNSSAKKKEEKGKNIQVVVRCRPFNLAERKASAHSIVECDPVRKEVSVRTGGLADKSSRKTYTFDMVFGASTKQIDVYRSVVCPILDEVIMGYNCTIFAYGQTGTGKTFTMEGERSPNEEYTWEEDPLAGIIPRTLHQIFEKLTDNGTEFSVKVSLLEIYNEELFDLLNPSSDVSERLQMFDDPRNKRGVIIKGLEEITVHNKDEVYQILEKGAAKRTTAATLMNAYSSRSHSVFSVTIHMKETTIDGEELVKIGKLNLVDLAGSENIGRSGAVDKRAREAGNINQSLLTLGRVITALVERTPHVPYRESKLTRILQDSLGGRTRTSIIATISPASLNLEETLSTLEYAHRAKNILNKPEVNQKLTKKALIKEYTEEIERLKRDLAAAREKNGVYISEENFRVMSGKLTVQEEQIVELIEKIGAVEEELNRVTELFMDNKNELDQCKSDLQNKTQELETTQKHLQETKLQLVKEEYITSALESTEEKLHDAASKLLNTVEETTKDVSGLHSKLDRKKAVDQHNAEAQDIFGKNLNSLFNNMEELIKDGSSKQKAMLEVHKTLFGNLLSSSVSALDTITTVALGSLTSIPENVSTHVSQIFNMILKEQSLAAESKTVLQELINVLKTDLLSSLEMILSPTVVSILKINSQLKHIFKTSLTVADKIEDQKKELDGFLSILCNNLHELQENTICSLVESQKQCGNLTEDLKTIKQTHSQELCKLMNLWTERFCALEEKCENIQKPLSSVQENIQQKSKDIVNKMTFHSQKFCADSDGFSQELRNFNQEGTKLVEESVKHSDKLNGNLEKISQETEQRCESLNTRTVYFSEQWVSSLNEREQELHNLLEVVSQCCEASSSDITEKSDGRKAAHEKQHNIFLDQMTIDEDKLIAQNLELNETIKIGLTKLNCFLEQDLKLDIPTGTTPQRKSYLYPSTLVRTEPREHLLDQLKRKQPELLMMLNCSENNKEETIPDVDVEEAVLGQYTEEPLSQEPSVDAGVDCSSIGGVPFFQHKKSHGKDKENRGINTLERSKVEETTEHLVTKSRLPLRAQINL

[17] = test system: COLO 205; assay: Anticancer activity against human COLO205 cells after 72 hrs by MTS/PMS assay; type: functional, cell-based
[18] = Aqueous solubility of the compound in 0.1 M phosphate buffer at pH 7.4 after 24 hrs by HPLC-UV method; type: physicochemical
[19] = Clearance in nude mouse; type: ADME, organism-based; details: in vivo

Chain of Ribosomal protein S6 kinase alpha-1 (Homo sapiens) (Q15418 whole entry): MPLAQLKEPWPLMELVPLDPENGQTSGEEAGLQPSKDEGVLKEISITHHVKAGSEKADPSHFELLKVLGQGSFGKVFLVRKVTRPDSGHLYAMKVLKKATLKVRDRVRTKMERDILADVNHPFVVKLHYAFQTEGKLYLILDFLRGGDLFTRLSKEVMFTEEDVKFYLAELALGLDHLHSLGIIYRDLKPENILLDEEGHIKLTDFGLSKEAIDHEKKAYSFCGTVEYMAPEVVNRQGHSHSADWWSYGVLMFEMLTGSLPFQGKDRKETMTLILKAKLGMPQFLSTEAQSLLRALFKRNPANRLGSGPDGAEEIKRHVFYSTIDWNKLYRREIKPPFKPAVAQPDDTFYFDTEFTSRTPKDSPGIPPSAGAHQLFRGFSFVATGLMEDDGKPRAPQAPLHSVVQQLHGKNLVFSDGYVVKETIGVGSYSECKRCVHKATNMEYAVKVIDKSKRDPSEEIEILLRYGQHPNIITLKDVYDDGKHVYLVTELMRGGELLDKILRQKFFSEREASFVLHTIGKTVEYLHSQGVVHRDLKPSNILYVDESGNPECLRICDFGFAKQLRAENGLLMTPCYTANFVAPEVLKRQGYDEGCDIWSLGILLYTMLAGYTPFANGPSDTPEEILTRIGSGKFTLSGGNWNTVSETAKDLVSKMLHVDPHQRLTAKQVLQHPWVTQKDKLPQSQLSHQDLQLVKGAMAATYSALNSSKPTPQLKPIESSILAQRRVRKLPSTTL
Chain of Somatostatin receptor type 1 (Homo sapiens) (P30872 whole entry): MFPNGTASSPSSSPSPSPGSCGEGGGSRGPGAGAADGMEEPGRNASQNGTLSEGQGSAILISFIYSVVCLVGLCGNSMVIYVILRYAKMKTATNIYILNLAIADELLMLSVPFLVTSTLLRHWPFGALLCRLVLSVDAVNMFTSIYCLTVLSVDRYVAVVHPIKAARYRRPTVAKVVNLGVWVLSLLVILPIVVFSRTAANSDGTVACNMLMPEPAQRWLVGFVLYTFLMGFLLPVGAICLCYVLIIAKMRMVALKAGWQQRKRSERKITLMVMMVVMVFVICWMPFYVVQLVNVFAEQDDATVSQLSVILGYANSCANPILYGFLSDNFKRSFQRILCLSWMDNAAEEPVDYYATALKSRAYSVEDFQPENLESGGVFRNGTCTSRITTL
Chain of Tyrosine-protein kinase Lck (Homo sapiens) (P06239 2-509 limits assumed): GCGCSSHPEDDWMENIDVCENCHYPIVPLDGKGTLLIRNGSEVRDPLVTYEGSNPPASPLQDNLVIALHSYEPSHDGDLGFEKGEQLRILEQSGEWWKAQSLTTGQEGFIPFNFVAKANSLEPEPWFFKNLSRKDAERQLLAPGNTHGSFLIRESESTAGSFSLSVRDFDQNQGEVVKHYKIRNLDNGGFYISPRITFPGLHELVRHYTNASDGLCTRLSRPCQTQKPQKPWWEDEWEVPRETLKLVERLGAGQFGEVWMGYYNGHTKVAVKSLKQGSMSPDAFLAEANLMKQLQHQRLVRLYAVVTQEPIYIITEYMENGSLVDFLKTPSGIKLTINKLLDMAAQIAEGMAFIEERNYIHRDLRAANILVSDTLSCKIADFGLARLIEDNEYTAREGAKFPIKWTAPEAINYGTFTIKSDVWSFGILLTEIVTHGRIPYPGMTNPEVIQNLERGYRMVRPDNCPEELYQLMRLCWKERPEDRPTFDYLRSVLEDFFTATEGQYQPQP

SMILES: Cc1ccc(C(=O)N(CCCN)C(c2nc3snc(C)c3c(=O)n2Cc2ccccc2)C(C)C)cc1 (single isomer, unassigned; (+))
inhibition [1]: 76%
inhibition [2]: 80%
inhibition [3]: 71%
Activity [4]: Active
Activity [5]: Active
Activity [6]: Active
Activity [7]: Active
Activity [8]: Active
Activity [9]: Active
Activity [10]: Active
Activity [11]: Active
inhibition [12]: 42%
inhibition [13]: 35%
inhibition [14]: 99%
inhibition [15]: 87%

SMILES: CCC(c1nc2ccsc2c(=O)n1Cc1ccccc1)N(CC1CNCCO1)C(=O)c1ccc(C)cc1 (centres undefined)
IC50 [16]: 310 nM
IC50 ([17]; Homo sapiens, COLO 205, 72 h): 720 nM

SMILES: CCC(c1nc2ccsc2c(=O)n1Cc1ccccc1)N(CCCCN)C(=O)c1ccc(C)cc1 (centres undefined)
IC50 [16]: 390 nM
IC50 ([17]; Homo sapiens, COLO 205, 72 h): 980 nM

SMILES: CCC(c1nc2ccsc2c(=O)n1Cc1cc(C)on1)N(CCCN)C(=O)c1ccc(C)cc1 (centres undefined)
IC50 [16]: 630 nM
IC50 ([17]; Homo sapiens, COLO 205, 72 h): 1710 nM

SMILES: CCC(c1nc2ccsc2c(=O)n1Cc1ccccc1)N(CCCN)C(=O)c1ccc(C(C)C)cc1 (centres undefined)
IC50 [16]: 940 nM
IC50 ([17]; Homo sapiens, COLO 205, 72 h): 3300 nM

Continued by falling IC50 [16], values first:

IC50 [16]: 141 nM
IC50 ([17]; Homo sapiens, COLO 205, 72 h): 763 nM
SMILES: CCC(c1nc2sc(Br)cc2c(=O)n1Cc1ccccc1)N(CCCN)C(=O)c1ccc(C)cc1 (centres undefined)

IC50 [16]: 16 nM
IC50 ([17]; Homo sapiens, COLO 205, 72 h): 23 nM
solubility at 24 h [18]: 69 µM (≈ 32.7 µg/mL)
SMILES: CCC(c1nc2onc(C)c2c(=O)n1Cc1ccccc1)N(CCCN)C(=O)c1ccc(C)cc1 (centres undefined)

IC50 [16]: 10 nM
IC50 ([17]; Homo sapiens, COLO 205, 72 h): 100 nM
SMILES: CCC(c1nc2ccsc2c(=O)n1Cc1ccccc1)N(CCCN)C(=O)c1ccc(C)cc1 (centres undefined)

IC50 [16]: 8 nM
IC50 ([17]; colo 205): 30 nM
solubility at 24 h [18]: 1240 µM (≈ 588 µg/mL)
SMILES: CCC(c1nc2sccc2c(=O)n1Cc1ccccc1)N(CCCN)C(=O)c1ccc(C)cc1 (stereo in doubt; 56)

IC50 [16]: 3 nM
IC50 ([17]; colo 205): 4 nM
solubility at 24 h [18]: 1570 µM (≈ 770 µg/mL)
SMILES: CCC(c1nc2snc(C)c2c(=O)n1Cc1ccccc1)N(CCCN)C(=O)c1ccc(C)cc1 (stereo in doubt; 62)

IC50 [16]: 1 nM
IC50 ([17]; Homo sapiens, COLO 205, 72 h): 3 nM
clearance [19]: 50 mL/min/kg
SMILES: CCC(c1nc2snc(C)c2c(=O)n1Cc1ccccc1)N(CCCN)C(=O)c1ccc(C)cc1 (stereo in doubt; 68)
